{"source": "patent US20090137517A1", "about": "“SENSITIZING A CELL TO CANCER TREATMENT BY MODULATING THE ACTIVITY OF A NUCLEIC ACID ENCODING RPS27L PROTEIN” (Agency for Science, Technology and Research, priority 2006, published 2009)", "assay_type_in_all_cases": "cell-based, human", "key": {"HCT116 cells [1]": {"system": "HCT116 cells", "assay": "Cell cycle and apoptosis analysis by flow cytometry (sub-G1 DNA content)", "procedure": "(§1) Cells cycle analysis was performed by DNA content quantification. The cells were fixed with 70% ethanol and stained with propidium iodide (50 μg/ml) staining. The stained cells were analyzed by FACScalibur (BD Bioscience). For the BrdU incorporation assay and mitochondrial membrane potential detection, the BrdU Flow Kit and JC-1 staining kit (both from BD Bioscience) were used, respectively, following the instruction manual. Stained cells were analyzed by FACScalibur (BD Bioscience) and quantified by using CellQuest software (BD Bioscience)."}, "RPS27L": {"system": "RPS27L", "assay": "RPS27L gene silencing by RNA interference, RT-PCR", "settings": "HCT116 cells transfected with siRNA, then VP16 (10 μM)", "procedure": "(§2) The siRNA oligo targeting RPS27L (SEQ ID NO: 1: ggttgctacaagattacta was purchased from Proligo, and transfection was conducted using Lipofectamine 2000 (Invitrogen) according to the manufacturer's information. To generate stable knock-down cell lines, the siRNA sequences were cloned into the pSIREN-RetroQ retroviral expression vector (BD Bioscience) according to the manufacturer's instruction. Virally infected cells were selected in a medium containing 2 μg/ml puromycin and individual drug-resistant clones were collected, pooled and expanded.\n(§3) All RT-PCR was performed using the Titanium One Step RT-PCR Kit (BD Clontech)."}, "RPS27": {"system": "RPS27", "assay": "Specificity of RPS27L siRNA, RT-PCR of RPS27", "settings": "HCT116 cells transfected with siRNA, then VP16 (10 μM)", "procedure": "as §2, §3"}, "RPS27L protein [2]": {"system": "RPS27L protein", "assay": "Western blot of RPS27L protein levels in HCT116 cells", "settings": "ADR (1 μM), 5-FU (375 μM), nutlin-3 (10 μM)", "procedure": "(§4) To investigate whether the p53-induced increase in RPS27L mRNA also gives rise to the increased protein levels, immunoblot analysis of p53 wild-type and p53 null HCT116 cells treated with ADR, 5-FU or nutlin-3, a small molecule MDM2 antagonist that directly activates p53 (Vassilev, L. T., Vu, B. T., et al. (2004) “In vivo activation of the p53 pathway by small-molecule antagonists of MDM2” Science, vol. 303, p. 844-848) was performed. […] To extend this observations to other cell lines and to other p53 stimuli, U2OS (human osteosarcoma cell line) and SH-SY5Y (human neuroblastoma cell line) cells (p53 wild type) as well as Saos-2 cells (human osteosarcoma cell line, p53-deficient) were treated with ADR, etoposide phosphate (VP16®) and 5-FU (FIG. 2B). […] Obviously, 5-FU treatment activates a posttranslational mechanism that causes RPS27L protein downregulation in spite of the increased mRNA expression.\n(§5) Cells were harvested and lysed with RIPA buffer (50 mM Tris-HCl, pH7.4, 1 mM EDTA, 150 mM NaCl, 1% Nonidet P-40, 0.5% sodium deoxycholate and proteinase inhibitors). The lysates were clarified by centrifugation at 16,000×g for 15 minutes at 4° C. Protein concentrations were determined with the Bradford Protein Assay Kit (Bio-Rad). 20-50 μg protein samples were separated by SDS-PAGE, transferred onto an Immobilon membrane (Millipore) and blotted with antibodies. Anti-p53 and anti-p21 antibodies were from Santa Cruz; anti-MDM2 and anti-Puma antibodies were from Merck. The rabbit polyconal antibody to RPS27L was raised against a 14 amino acid peptide from human RPS27L (SEQ ID NO: 2: LHPSLEEEKKKHKK)."}, "p53 and p21": {"system": "p53 and p21", "assay": "Western blot of p53 and p21 protein levels in HCT116 cells", "settings": "ADR (1 μM), 5-FU (375 μM), nutlin-3 (10 μM)", "procedure": "as §4, §5"}, "RPS27L mRNA": {"system": "RPS27L mRNA", "assay": "RT-PCR of RPS27L mRNA after drug treatment of HCT116 cells", "settings": "p53 wild-type HCT116 cells; ADR (1 μM) or 5-FU (375 μM); not in p53 null cells", "description": "FIG. 1A depicts the microarray analysis showing a set of genes whose expression was induced by the DNA damaging agents adriamycin (ADR) and 5-fluorouracil (5-FU) in p53 wild-type HCT116 cells (human colorectal carcinoma cell line containing wild type p53) but not in the p53 null counterpart. In both treatments, RPS27L, together with bona fide p53 targets such as cdkn1a (encodes p21), Pmaid (encodes Noxa) and ccd3 (encodes Puma), was unregulated in a p53-dependent manner. To validate the microarray data, RT-PCR analysis was performed (FIG. 1B).\nThe human colon carcinoma cell line HCT116 and its p53 knock-out derivate cells were kindly provided by Dr. Bert Vogelstein. HCT116 cells can also be purchased under the ATCC number: CCL 247. The human osteosarcoma cell lines U2OS and Saos-2 can be purchased under the following ATCC numbers: U2OS, ATCC HTB-96; Saos-2, ATCC HTB-85 and SH-SY5Y, ATCC CRL-2266. Cells were grown in DMEM supplemented with 10% fetal bovine serum and penicillin-streptomycin (Invitrogen). Adriamycin, etoposide phosphate (VP16®) and 5-fluorouracil were purchased from Sigma-Aldrich.\nas §3"}, "RPS27L protein [3]": {"system": "RPS27L protein", "assay": "Western blot of RPS27L protein in U2OS, SH-SY5Y and Saos-2 cells", "settings": "U2OS and SH-SY5Y (p53 wild type), Saos-2 (p53-deficient); VP16 (10 μM), ADR (1 μM), 5-FU (375 μM)", "procedure": "as §4, §5"}, "HCT116 cells [4]": {"system": "HCT116 cells", "assay": "JC-1 staining, mitochondrial membrane potential by flow cytometry", "settings": "RPS27L shRNA HCT116 cells, ADR treatment", "procedure": "To further define the nature of this cell death response the inventors used another assay, namely flow cytometric detection of cells stained with JC-1. The JC-1-staining identifies cell death events as a result of loss of mitochondria membrane potential (ΔΨm).\nas §1"}, "HCT116 cells [5]": {"system": "HCT116 cells", "assay": "γ-H2AX focus formation, immunofluorescence and confocal microscopy", "procedure": "A deficient DNA damage checkpoint is expected to increase DNA damage. γ-H2AX foci are considered to be sensitive indicators of double strand breaks (DSB). We looked for γ-H2AX focus formation after etoposide phosphate (VP16®) treatment and monitored the reversibility post-VP16 washout.\nThe cells were seeded in 4-well or 8-well culture slides. After treatment, cells were fixed with 3.7% paraformaldehyde in PBS and permeabilized with 0.2% Triton-X100. Cells were sequentially incubated with primary antibodies (see above under “Protein Analysis and Generation of Anti-RPS27L Antibody”) and Alexa Fluor 488 or Alexa Fluor 546-conjugated secondary antibodies (Invitrogen) for 1 hour each and mounted in Fluorsave (Merck) mounting medium. DRAQ5 (Biostats, UK) was diluted in mounting medium for nuclear staining. The stained cells were examined by Zeiss LSM510 confocal microscopy."}}}
{"compound": "RPS27L siRNA: siRNA oligo targeting RPS27L, SEQ ID NO: 1: ggttgctacaagattacta, purchased from Proligo (GGTTGCTACAAGATTACTA; listed as DNA, chemistry not given here)", "values": [{"measurement": "cell death (sub-G1 DNA content)", "setting": "HCT116 cells [1]; HCT116 cells, transient siRNA transfection, then ADR (1 μM) 24 h", "result": "marked increase in cell death"}, {"measurement": "cell death (sub-G1 DNA content)", "setting": "HCT116 cells [1]; HCT116 cells, transient siRNA transfection, then etoposide phosphate (VP16) (10 μM) 24 h", "result": "marked increase in cell death"}, {"measurement": "cell death (sub-G1 DNA content)", "setting": "HCT116 cells [1]; p53 null HCT116 cells, transient siRNA transfection, then ADR or VP16", "result": "not in p53 null counterparts"}, {"measurement": "RPS27L expression (mRNA)", "setting": "RPS27L", "result": "nearly completely ablated"}, {"measurement": "effect on closely-related RPS27 (mRNA)", "setting": "RPS27", "result": "no effect"}]}
{"compound": "COc1ccc(C2=N[C@@H](c3ccc(Cl)cc3)[C@@H](c3ccc(Cl)cc3)N2C(=O)N2CCNC(=O)C2)c(OC(C)C)c1", "note": "[nutlin-3]", "values": [{"measurement": "RPS27L protein level", "setting": "RPS27L protein [2]", "result": "increased RPS27L protein levels"}, {"measurement": "p53 and p21 protein", "setting": "p53 and p21", "result": "accumulation of p53 and p21"}]}
{"compound": "O=c1[nH]cc(F)c(=O)[nH]1", "note": "[5-FU, 5-fluorouracil]", "values": [{"measurement": "RPS27L mRNA", "setting": "RPS27L mRNA", "result": "induced"}, {"measurement": "RPS27L protein level", "setting": "RPS27L protein [2]", "result": "downregulated"}, {"measurement": "p53 and p21 protein", "setting": "p53 and p21", "result": "increased p21 protein expression"}, {"measurement": "RPS27L protein level", "setting": "RPS27L protein [3]", "result": "downregulation"}, {"measurement": "cell cycle and apoptosis response", "setting": "HCT116 cells [1]; HCT116 p53+/+ and p53−/−, ADR (1 μM) or 5-FU (375 μM) for 48 h", "result": "p53-dependent apoptosis"}]}
{"compound": "RPS27L shRNA: short hairpin of SEQ ID NO: 1 to deplete RPS27L, stably expressed in HCT116 from pSIREN-RetroQ retroviral vector (guide GGTTGCTACAAGATTACTA)", "values": [{"measurement": "cell death (sub-G1 DNA content)", "setting": "HCT116 cells [1]; p53 wild-type HCT116 stably expressing RPS27L shRNA, ADR (1 μM) 48 h", "result": "marked cell death"}, {"measurement": "percentage of cells with lower membrane potential (ΔΨm)", "setting": "HCT116 cells [4]", "result": 33.5, "unit": "%"}]}
{"compound": "COc1cc([C@@H]2c3cc4c(cc3[C@@H](O[C@@H]3O[C@@H]5CO[C@@H](C)O[C@H]5[C@H](O)[C@H]3O)[C@H]3COC(=O)[C@H]23)OCO4)cc(OC)c1OP(=O)(O)O", "note": "[etoposide phosphate (VP16®), etoposide phosphate]", "values": [{"measurement": "RPS27L protein level", "setting": "RPS27L protein [3]", "result": "p53-dependent upregulation of RPS27L protein"}, {"measurement": "DSB foci (γ-H2AX staining) after treatment", "setting": "HCT116 cells [5]; HCT116 cells, VP16 (20 μM)", "result": "prominent DSB foci"}, {"measurement": "γ-H2AX staining after VP16 removal", "setting": "HCT116 cells [5]; RPS27L-depleted HCT116 cells, after VP16 removal", "result": "sustained γ-H2AX staining"}, {"measurement": "γ-H2AX staining after VP16 removal", "setting": "HCT116 cells [5]; control HCT116 cells, by 16 hours after VP16 removal", "result": "almost undetectable"}]}
